Literature values as cited in patent publication US20060141037A1, “Bilayer tablets of oxcarbazepine for controlled delivery and a process of preparation thereof” (J. B. Chemicals & Pharmaceuticals Ltd., priority 2004, published 2006).

Assays:
animal models = settings: comparable to that of carbamazepine and phenytoin
[1] = tested on: voltage-sensitive sodium channels; settings: in vitro electrophysiological studies

solubility in water	Structure (SMILES)	antiepileptic activity in animal models (animal models)	effect on voltage-sensitive sodium channels [1]
	NC(=O)N1c2ccccc2CC(O)c2ccccc21 (centres unmarked) [MHD, 10,11-dihydro-10-hydro-carbamazepine]	potent antiepileptic activity	blockade of voltage-sensitive sodium channels
practically insoluble in water	NC(=O)N1c2ccccc2CC(=O)c2ccccc21 [Oxcarbazepine, 10,11-dihydro-10-oxo-5H-dibenz[b,f]azepine-5-carboxamide]	potent antiepileptic activity	blockade of voltage-sensitive sodium channels
